Test results from paper PMC8232238 (Cells, 2021).
Where “and” joins values, the source holds several entries; their conditions need not be identical. Identical values can stand only once. Like-named read-outs stand apart in the source and are kept apart here.

Experiments:
[1] = UV/Vis absorption and fluorescence (photophysical properties) in DMSO; assay type: physicochemical; conditions: for λem: excitation at 340 nm; for Φf (fluorescence quantum yield): relative to quinine sulfate, average of two samples
Procedure: S1.6 UV/Vis and Fluorescence Data
UV/Vis analysis was performed on a Cary Eclipse 300 UV/Vis spectrophotometer and fluorescence measurements performed on a Cary Eclipse Fluorescence spectrophotometer. All analysis was performed in 10 mm quartz cuvettes using AR grade DMSO. Relative quantum yields were obtained by comparison to quinine sulfate (фf = 0.58 in 0.1 M H2SO4) with absorbance of samples adjusted so that the absorbance at 340 nm was similar to the reference.
Emission spectra were obtained by excitation at 340 nm. Quantum yield was obtained by use of the following equation and are reported as the average of two samples with error <5%; […]
Where фref is the literature quantum yield of the reference, η is the refractive index of the solvent (H2O = 1.333, DMSO = 1.479) and Is is the integrated fluorescence intensity of the sample with Iref being the same of the reference.
Table S1 – Photophysical properties of selected compounds in DMSO […]
†Average of two samples, ±1%

HDAC8 = biological target: T1, HDAC8 (Homo sapiens, UniProt Q9BY41); experiment: HDAC8 enzyme inhibition assay (single point and 10-dose IC50, Reaction Biology); assay type: biochemical; conditions: for IC50: average of two independent measurements; for Selectivity factor (SF) HDAC8 against HDAC6: selectivity for HDAC6 over HDAC8
T1 construct: purchased Reaction Biology corporation (contract assay)
T1 sequence (Q9BY41 1-377): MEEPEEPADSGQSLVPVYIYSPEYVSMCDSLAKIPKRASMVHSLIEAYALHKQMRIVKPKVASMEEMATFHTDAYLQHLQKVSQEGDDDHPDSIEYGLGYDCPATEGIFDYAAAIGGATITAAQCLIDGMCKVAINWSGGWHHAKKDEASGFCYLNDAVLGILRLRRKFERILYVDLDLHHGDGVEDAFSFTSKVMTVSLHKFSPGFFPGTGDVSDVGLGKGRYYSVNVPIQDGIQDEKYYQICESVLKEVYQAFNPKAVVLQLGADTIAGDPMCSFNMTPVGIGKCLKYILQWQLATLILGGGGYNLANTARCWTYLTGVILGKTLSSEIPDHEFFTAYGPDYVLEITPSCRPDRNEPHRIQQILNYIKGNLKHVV
Procedure: (§1) Against HDAC6, inhibition was determined using 0.01 µM of the inhibitor.
(§2) All IC50 measurements we performed by Reaction Biology corporation. Compounds were tested in
(§3) dilution starting at 1 uM. […]
(§4) (RHK(Ac)K(Ac)AMC). IC50 values were calculated using the GraphPad Prism 4 program based on a
(§5) sigmoidal dose-response equation. […]

HDAC3 = biological target: T2, HDAC3 (Homo sapiens, UniProt O15379); experiment: HDAC3 enzyme inhibition assay (single point and 10-dose IC50, Reaction Biology); assay type: biochemical; conditions: for IC50: average of two independent measurements; for HDAC3 average enzyme isoform activity (percentage of full enzyme activity): single point, inhibitor 1.0 μM, average of two measurements, ±2%
T2 construct: purchased Reaction Biology corporation (contract assay)
Procedure: as §2, §3, §4, §5

HDAC11 = biological target: T3, HDAC11 (Homo sapiens, UniProt Q96DB2); experiment: HDAC11 enzyme inhibition assay (single point and 10-dose IC50, Reaction Biology); assay type: biochemical; conditions: for IC50: average of two independent measurements; for Selectivity factor (SF) HDAC11 against HDAC6: selectivity for HDAC6 over HDAC11; for HDAC11 average enzyme isoform activity (percentage of full enzyme activity): single point, inhibitor 1.0 μM, average of two measurements, ±2%
T3 construct: purchased Reaction Biology corporation (contract assay)
T3 sequence (Q96DB2 1-347): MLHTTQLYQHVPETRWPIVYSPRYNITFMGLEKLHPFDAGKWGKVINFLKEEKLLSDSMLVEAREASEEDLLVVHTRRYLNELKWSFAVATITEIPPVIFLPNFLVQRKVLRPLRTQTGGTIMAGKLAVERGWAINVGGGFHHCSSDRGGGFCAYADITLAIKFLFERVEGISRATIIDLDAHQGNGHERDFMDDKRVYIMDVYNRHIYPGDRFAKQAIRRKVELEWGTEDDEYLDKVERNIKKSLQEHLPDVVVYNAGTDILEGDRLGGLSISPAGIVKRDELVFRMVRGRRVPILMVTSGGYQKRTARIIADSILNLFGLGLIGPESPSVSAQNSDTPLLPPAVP
Procedure: as §1
All IC50 measurements we performed by Reaction Biology corporation. Compounds were tested in […]
dilution starting at 1 uM.
Substrate for HDAC11: 50 uM Fluorogenic HDAC Class2a Substrate […]
(Trifluoroacetyl Lysine).
(RHK(Ac)K(Ac)AMC). IC50 values were calculated using the GraphPad Prism 4 program based on a sigmoidal dose-response equation. […]

HDAC6 = biological target: T4, HDAC6 (Homo sapiens, UniProt Q9UBN7); experiment: HDAC6 enzyme inhibition assay (single point and 10-dose IC50, Reaction Biology); assay type: biochemical; conditions: for IC50: average of two independent measurements; for HDAC6 average enzyme isoform activity (percentage of full enzyme activity): single point, inhibitor 0.01 μM, average of two measurements, ±2%
T4 construct: purchased Reaction Biology corporation (contract assay)
T4 sequence (Q9UBN7 1-1215): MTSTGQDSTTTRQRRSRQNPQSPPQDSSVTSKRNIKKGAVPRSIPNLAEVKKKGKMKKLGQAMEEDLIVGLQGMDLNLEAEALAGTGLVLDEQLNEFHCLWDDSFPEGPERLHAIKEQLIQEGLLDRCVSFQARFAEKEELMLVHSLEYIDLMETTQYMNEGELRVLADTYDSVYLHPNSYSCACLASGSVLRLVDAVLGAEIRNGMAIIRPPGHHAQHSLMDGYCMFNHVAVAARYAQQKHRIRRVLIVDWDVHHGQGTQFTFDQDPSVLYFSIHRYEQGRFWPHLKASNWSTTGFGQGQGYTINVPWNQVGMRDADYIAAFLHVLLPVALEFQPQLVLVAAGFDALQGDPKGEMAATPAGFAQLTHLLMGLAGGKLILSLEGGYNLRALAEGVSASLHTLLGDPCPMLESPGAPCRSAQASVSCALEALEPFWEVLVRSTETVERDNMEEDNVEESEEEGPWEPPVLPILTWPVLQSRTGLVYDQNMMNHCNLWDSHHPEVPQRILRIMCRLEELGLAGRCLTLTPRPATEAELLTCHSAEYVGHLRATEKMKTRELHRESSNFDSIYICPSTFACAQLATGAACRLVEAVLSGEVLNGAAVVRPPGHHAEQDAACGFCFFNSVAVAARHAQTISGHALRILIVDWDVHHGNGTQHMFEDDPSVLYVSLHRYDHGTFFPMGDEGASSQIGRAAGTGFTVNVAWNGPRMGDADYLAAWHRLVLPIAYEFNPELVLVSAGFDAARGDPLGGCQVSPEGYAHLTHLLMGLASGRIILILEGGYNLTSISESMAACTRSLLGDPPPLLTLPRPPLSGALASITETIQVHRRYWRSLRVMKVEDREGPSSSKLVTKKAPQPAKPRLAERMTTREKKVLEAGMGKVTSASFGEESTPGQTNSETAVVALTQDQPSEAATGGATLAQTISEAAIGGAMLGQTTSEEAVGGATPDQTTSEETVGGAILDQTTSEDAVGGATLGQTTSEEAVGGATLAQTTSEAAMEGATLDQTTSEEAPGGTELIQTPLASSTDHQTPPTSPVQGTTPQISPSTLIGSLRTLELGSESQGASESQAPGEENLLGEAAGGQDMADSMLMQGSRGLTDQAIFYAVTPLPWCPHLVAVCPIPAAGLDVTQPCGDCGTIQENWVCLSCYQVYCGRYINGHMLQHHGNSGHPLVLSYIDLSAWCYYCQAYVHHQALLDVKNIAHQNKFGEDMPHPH
Procedure: as §1, §2, §3, §4, §5

HDAC1 = biological target: T5, HDAC1 (Homo sapiens, UniProt Q13547); experiment: HDAC1 enzyme inhibition assay (single point and 10-dose IC50, Reaction Biology); assay type: biochemical; conditions: for IC50: average of two independent measurements; for Selectivity factor (SF) = HDAC1 IC50/HDAC6 IC50: selectivity for HDAC6 over HDAC1; for HDAC1 average enzyme isoform activity (percentage of full enzyme activity): single point, inhibitor 1.0 μM, average of two measurements, ±2%
T5 construct: purchased Reaction Biology corporation (contract assay)
Procedure: as §2, §3, §4, §5

[2] = single point, inhibitor 1.0 μM, average of two measurements, ±2%

T5 sequence (Q13547 whole entry, canonical isoform): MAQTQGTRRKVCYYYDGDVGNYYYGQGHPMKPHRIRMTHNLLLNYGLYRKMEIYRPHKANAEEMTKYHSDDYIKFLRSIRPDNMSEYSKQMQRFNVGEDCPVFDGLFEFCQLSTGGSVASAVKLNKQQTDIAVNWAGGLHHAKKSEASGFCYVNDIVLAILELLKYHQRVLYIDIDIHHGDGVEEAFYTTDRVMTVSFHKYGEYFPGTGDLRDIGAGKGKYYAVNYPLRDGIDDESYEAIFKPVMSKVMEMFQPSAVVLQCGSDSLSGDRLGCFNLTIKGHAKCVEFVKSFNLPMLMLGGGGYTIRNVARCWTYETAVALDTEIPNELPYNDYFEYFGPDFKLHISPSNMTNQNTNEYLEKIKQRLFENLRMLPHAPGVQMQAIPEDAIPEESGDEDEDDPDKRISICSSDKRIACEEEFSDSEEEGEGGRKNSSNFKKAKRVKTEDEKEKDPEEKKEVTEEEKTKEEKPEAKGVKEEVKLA
T2 sequence (O15379 whole entry, canonical isoform): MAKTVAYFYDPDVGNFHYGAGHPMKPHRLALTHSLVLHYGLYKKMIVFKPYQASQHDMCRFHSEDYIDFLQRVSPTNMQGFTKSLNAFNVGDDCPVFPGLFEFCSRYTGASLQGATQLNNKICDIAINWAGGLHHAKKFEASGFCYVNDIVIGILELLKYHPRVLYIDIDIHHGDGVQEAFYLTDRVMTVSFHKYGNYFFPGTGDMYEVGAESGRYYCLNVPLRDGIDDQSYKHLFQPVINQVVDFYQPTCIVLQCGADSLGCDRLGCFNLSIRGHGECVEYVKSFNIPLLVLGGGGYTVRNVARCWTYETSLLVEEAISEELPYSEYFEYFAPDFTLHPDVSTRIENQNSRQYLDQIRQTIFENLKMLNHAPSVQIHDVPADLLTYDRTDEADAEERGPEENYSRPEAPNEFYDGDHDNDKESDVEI
T2 sequence (Q9Y618 395-489 partner limits assumed): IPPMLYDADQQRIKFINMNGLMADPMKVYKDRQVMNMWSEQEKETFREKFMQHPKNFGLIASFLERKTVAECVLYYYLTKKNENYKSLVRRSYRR

## COCCN1C(=O)c2cccc3cc(N4CCCC4=O)cc(c23)C1=O [Compound 8]
[1]
  λabs (absorption maximum): 343 nm
  λabs (secondary absorption maximum): 383 nm
  λem: 441 nm
  Φf (fluorescence quantum yield): 0.02

## COCCN1C(=O)c2cccc3cc(NC(=O)OC(C)(C)C)cc(c23)C1=O [Compound 9]
[1]
  λabs (absorption maximum): 345 nm
  λabs (secondary absorption maximum): 367 nm
  λem: 442 nm
  Φf (fluorescence quantum yield): 0.06

## O=C(CCCCCN1C(=O)c2cccc3cccc(c23)C1=O)NO [scriptaid, reference compound]
HDAC8
  HDAC8 average enzyme isoform activity (percentage of full enzyme activity): 60.3%

## CCC(=O)Nc1cc2c3c(cccc3c1)C(=O)N(CCOC)C2=O [Compound 7]
[1]
  λabs (absorption maximum): 341 nm
  λabs (secondary absorption maximum): 383 nm
  λem: 439 nm
  Φf (fluorescence quantum yield): 0.04

## COCCN1C(=O)c2cccc3cc(NC(=O)c4ccccc4)cc(c23)C1=O [Compound 6]
[1]
  λabs (absorption maximum): 344 nm
  λabs (secondary absorption maximum): 385 nm
  λem: 435 nm
  Φf (fluorescence quantum yield): 0.02

## CCC(=O)Nc1cc2c3c(cccc3c1)C(=O)N(CCCCCC(=O)NO)C2=O [KNH021]
HDAC8
  IC50: 0.95 ± 0.05 µM
  Selectivity factor (SF) HDAC8 against HDAC6: 981
HDAC8; [2]
  HDAC8 average enzyme isoform activity (percentage of full enzyme activity): 50.4%
HDAC3
  IC50: 0.032 ± 0.001 µM
  HDAC3 average enzyme isoform activity (percentage of full enzyme activity): 20.1%
HDAC11
  IC50: 2.16 ± 0.14 µM
  Selectivity factor (SF) HDAC11 against HDAC6: 2234
  HDAC11 average enzyme isoform activity (percentage of full enzyme activity): 90.7%
HDAC6
  IC50: 0.00097 ± 5e-05 µM
  HDAC6 average enzyme isoform activity (percentage of full enzyme activity): 20.3%
[1]
  λabs (absorption maximum): 341 nm
  λabs (secondary absorption maximum): 383 nm
  λem: 435 nm
  Φf (fluorescence quantum yield): 0.04
HDAC1
  IC50: 0.037 ± 0.002 µM
  Selectivity factor (SF) = HDAC1 IC50/HDAC6 IC50: 38
  HDAC1 average enzyme isoform activity (percentage of full enzyme activity): 29.8%

## COc1ccc(C(=O)Nc2cc3c4c(cccc4c2)C(=O)N(CCCCCC(=O)NO)C3=O)cc1 [KNH020]
HDAC8
  IC50: 4.33 ± 0.39 µM
  Selectivity factor (SF) HDAC8 against HDAC6: 7466
HDAC8; [2]
  HDAC8 average enzyme isoform activity (percentage of full enzyme activity): 93.4%
HDAC3
  IC50: 0.027 ± 0.003 µM
  HDAC3 average enzyme isoform activity (percentage of full enzyme activity): 17.2%
HDAC3; selectivity for HDAC6 over HDAC3
  Selectivity factor (SF) HDAC3 against HDAC6: 47
HDAC11
  IC50: 0.24 ± 0.011 µM
  Selectivity factor (SF) HDAC11 against HDAC6: 413
  HDAC11 average enzyme isoform activity (percentage of full enzyme activity): 58.7%
HDAC6
  IC50: 0.00058 ± 2e-06 µM
  HDAC6 average enzyme isoform activity (percentage of full enzyme activity): 19.7%
[1]
  λabs (absorption maximum): 343 nm
  λabs (secondary absorption maximum): 386 nm and 374 nm
  λem: 437 nm
  Φf (fluorescence quantum yield): 0.05
HDAC1
  IC50: 0.087 ± 0.007 µM
  Selectivity factor (SF) = HDAC1 IC50/HDAC6 IC50: 150
  HDAC1 average enzyme isoform activity (percentage of full enzyme activity): 38.7%
